Results on ten compounds are retold here after PubChem BioAssay (NCI).

Test systems include NCI-H23 lung; K-562 leukemia; OVCAR-8 ovarian; HCC-2998 colon; 786-0 renal; SF-539 CNS; SR leukemia; SW-620 colon; UACC-62 melanoma; OVCAR-3 ovarian.
Holding throughout (test): growth of human tumour cells (NCI), 48 h

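Test compounds were applied to cells in 96-well plates for 48 hours at 5 doses. GI50 is the concentration that inhibits growth by half. TGI: total growth inhibition.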

With `O=S1CSCS1` (stereo not drawn), the TGI with NCI-H23 lung, with K-562 leukemia, with OVCAR-8 ovarian, with HCC-2998 colon, in the test with 786-0 renal and with SF-539 CNS was more than 100 µM each time. For the same compound, the TGI in the test on SR leukemia, in the test on SW-620 colon, in the test on UACC-62 melanoma and with OVCAR-3 ovarian was more than 100 µM each time.
Take `O=c1oc2cc(N=Cc3ccccc3Cl)ccc2c2ccccc12`: the TGI in the test on NCI-H23 lung, with K-562 leukemia, in the test on OVCAR-8 ovarian, with HCC-2998 colon, with 786-0 renal and in the test on SF-539 CNS was more than 100 µM in each case. For the same compound, the TGI with SR leukemia, in the test on SW-620 colon, in the test with UACC-62 melanoma and in the test with OVCAR-3 ovarian was more than 100 µM each time.
In the case of `COc1ccc(C(C#N)NC23CC4CC(CC(C4)C2)C3)cc1OC` (stereo not drawn), the TGI in the test on NCI-H23 lung, in the test with K-562 leukemia, in the test on OVCAR-8 ovarian, in the test on HCC-2998 colon, in the test on 786-0 renal and in the test with SF-539 CNS was more than 100 µM in each case. In addition, the TGI in the test on SR leukemia, in the test with SW-620 colon, in the test with UACC-62 melanoma and with OVCAR-3 ovarian was more than 100 µM in each case.
With `COc1ccc(-c2nn(-c3ccc(NC(=O)c4ccc(Cl)c(C(F)(F)F)c4)cc3)cc2-c2ccncc2)cc1Cl`, the GI50 with NCI-H23 lung is 2.15 µM; with K-562 leukemia it was 0.706 µM; with OVCAR-8 ovarian, 2.37 µM; with HCC-2998 colon it was 1.06 µM; in the test with 786-0 renal it was 0.187 µM; in the test on SF-539 CNS, 0.5 µM. In addition, the GI50 in the test with SR leukemia is 0.316 µM; in the test with SW-620 colon it was 1.06 µM; in the test with UACC-62 melanoma, 1.07 µM; in the test with OVCAR-3 ovarian, 1.99 µM. Also, the TGI with NCI-H23 lung is more than 100 µM; in the test on K-562 leukemia it was more than 100 µM; in the test on OVCAR-8 ovarian it was more than 100 µM; with HCC-2998 colon, more than 43.4 µM; in the test on 786-0 renal it was 0.449 µM; in the test with SR leukemia, more than 100 µM. Further, the TGI in the test on SW-620 colon is more than 100 µM; in the test on UACC-62 melanoma it was 5.02 µM; with OVCAR-3 ovarian, more than 100 µM.
As for `Cc1cc(=O)n(-c2ccccc2)c(=O)o1`, the TGI in the test with NCI-H23 lung, in the test with K-562 leukemia, with HCC-2998 colon, in the test with 786-0 renal, in the test on SF-539 CNS and in the test with SR leukemia was more than 100 µM throughout. Also, the TGI in the test with SW-620 colon, with UACC-62 melanoma and with OVCAR-3 ovarian was more than 100 µM each time.
Turning to `O=C(/C=C/c1ccccc1)c1c[nH]c2ccccc2c1=O`, the GI50 in the test with NCI-H23 lung was 3.17 µM; with K-562 leukemia, 2.74 µM; in the test on OVCAR-8 ovarian, 2.23 µM; in the test with HCC-2998 colon, 2.85 µM; with 786-0 renal, 4.01 µM; with SF-539 CNS it was 2.55 µM. Also, the GI50 in the test on SR leukemia was 2.62 µM; with SW-620 colon, 2.76 µM; with UACC-62 melanoma, 5.09 µM; with OVCAR-3 ovarian, 2.03 µM. The TGI worked out at 15.2 µM in the test with NCI-H23 lung; 54.8 µM with K-562 leukemia; 6.82 µM in the test with OVCAR-8 ovarian; 9.48 µM in the test on HCC-2998 colon; 17.2 µM in the test with 786-0 renal; 8.81 µM with SF-539 CNS. Besides, the TGI in the test with SR leukemia is more than 100 µM; with SW-620 colon, 10 µM; in the test on UACC-62 melanoma, 18.2 µM; with OVCAR-3 ovarian it was 4.37 µM.
In the case of `Oc1c(C(Nc2cccc3ccccc23)c2ccccc2)ccc2cccnc12` (stereo not drawn), the GI50 in the test with NCI-H23 lung was 4.04 µM; with K-562 leukemia, 3.8 µM; with OVCAR-8 ovarian, 3.22 µM; in the test with HCC-2998 colon, 4.56 µM; in the test on 786-0 renal it was 3.37 µM; in the test on SF-539 CNS, 4.56 µM. Further, the GI50 with SR leukemia is 2.76 µM; in the test on SW-620 colon, 3.73 µM; in the test on UACC-62 melanoma it was 2.82 µM; in the test with OVCAR-3 ovarian, 3.79 µM. Further, the TGI with NCI-H23 lung was 27.5 µM; with K-562 leukemia, more than 100 µM; in the test on OVCAR-8 ovarian it was 39.3 µM; in the test with HCC-2998 colon, more than 100 µM; in the test with 786-0 renal it was 76.3 µM; with SF-539 CNS it was 21.4 µM. The TGI in the test with SR leukemia is 22.5 µM; in the test with SW-620 colon it was 24 µM; in the test with UACC-62 melanoma, 39.6 µM; in the test with OVCAR-3 ovarian, 19.1 µM.
Regarding `N#CC(C#N)=Cc1c(-c2ccccc2)[nH]c2ccccc12`, the GI50 was 4.65 µM in the test with NCI-H23 lung; 0.478 µM in the test on K-562 leukemia; 5.75 µM with OVCAR-8 ovarian; 10.4 µM in the test on HCC-2998 colon; 8.55 µM in the test with 786-0 renal; 2.1 µM in the test with SF-539 CNS. The GI50 with SR leukemia is more than 100 µM; in the test with SW-620 colon, 0.523 µM; in the test on UACC-62 melanoma, 2.24 µM; in the test with OVCAR-3 ovarian it was 1.66 µM. The TGI with NCI-H23 lung was more than 66.3 µM; with K-562 leukemia, more than 100 µM; with OVCAR-8 ovarian, more than 90.2 µM; in the test with HCC-2998 colon, 35.9 µM; with 786-0 renal, more than 64.1 µM; in the test on SF-539 CNS it was 9.12 µM. The TGI with SR leukemia is more than 100 µM; with SW-620 colon, more than 35.1 µM; in the test with UACC-62 melanoma, more than 46.5 µM; with OVCAR-3 ovarian, 5.29 µM.
As to `Cc1cc(=O)oc2c(CN3CCCCC3)c(O)ccc12`, the TGI in the test with NCI-H23 lung, in the test with K-562 leukemia, in the test with OVCAR-8 ovarian, in the test with HCC-2998 colon, in the test on 786-0 renal and in the test with SF-539 CNS was more than 100 µM throughout. The TGI in the test with SR leukemia, with SW-620 colon, in the test with UACC-62 melanoma and with OVCAR-3 ovarian was more than 100 µM in each case.
For the compound `O=C(COc1ccc(/C=C2\Oc3ccccc3C2=O)cc1)Nc1nccs1`, the GI50 is 49.8 µM in the test on NCI-H23 lung; 60.1 µM with K-562 leukemia; more than 100 µM in the test on OVCAR-8 ovarian; more than 100 µM with HCC-2998 colon; 54.9 µM in the test on 786-0 renal; 32.5 µM with SF-539 CNS. Moreover, the GI50 in the test with SR leukemia is 20.8 µM; with SW-620 colon, more than 100 µM; in the test with UACC-62 melanoma, more than 100 µM; in the test with OVCAR-3 ovarian, 36.1 µM. The TGI in the test on NCI-H23 lung, in the test on K-562 leukemia, with OVCAR-8 ovarian, in the test with HCC-2998 colon, in the test on 786-0 renal and in the test on SF-539 CNS was more than 100 µM throughout. Besides, the TGI in the test with SR leukemia is 61 µM; in the test on SW-620 colon it was more than 100 µM; in the test with UACC-62 melanoma, more than 100 µM; with OVCAR-3 ovarian it was more than 100 µM.
